The species entered for one data set is Rattus norvegicus. Kind of data set: NADPH-dependent metabolic rate was measured in rat liver microsomal preparations. Type of data set: functional.
Data set [1] can be described thus: Half-life for disappearance of compound measured at 37 degree C and pH 7.4 in rat liver microsomal preparations. The data set is classed as ADME. The note with it: liver microsomes.

Each structure is given as a SMILES string.

`O=C(NCCCl)NCCCl`: in the data set listed under Rattus norvegicus, the Rate (nM (mg of protein)-1) was 54.

Regarding `O=NN(CCCl)C(=O)NCCCl` [CARMUSTINE], the Rate (nM (mg of protein)-1) in the data set filed under Rattus norvegicus is 56. Besides, in data set [1], the half-life was 1.5 h.

These data come from ChEMBL document CHEMBL1121648, “Metabolism of 1,3-bis(2-chloroethyl)-1-nitrosourea by rat hepatic microsomes” (J Med Chem, 1981).
